Assay results reported in ChEMBL document CHEMBL1201862, “PubChem BioAssay data set” (2004).
Activity calls are given as the source filed them.

Columns and labels:
[1] = target: T1, Oxysterols receptor LXR-beta (Homo sapiens, UniProt P55055); experiment: LXR agonists, Gal4 luciferase reporter, dose response, counter-screen for ssDAF-12 agonist project, cell-based, luminescence, HEK293, S. stercoralis campaign (AID 720737); assay type: functional; conditions: read-out: IC50 (the source's name)
T1 sequence (P55055 whole entry): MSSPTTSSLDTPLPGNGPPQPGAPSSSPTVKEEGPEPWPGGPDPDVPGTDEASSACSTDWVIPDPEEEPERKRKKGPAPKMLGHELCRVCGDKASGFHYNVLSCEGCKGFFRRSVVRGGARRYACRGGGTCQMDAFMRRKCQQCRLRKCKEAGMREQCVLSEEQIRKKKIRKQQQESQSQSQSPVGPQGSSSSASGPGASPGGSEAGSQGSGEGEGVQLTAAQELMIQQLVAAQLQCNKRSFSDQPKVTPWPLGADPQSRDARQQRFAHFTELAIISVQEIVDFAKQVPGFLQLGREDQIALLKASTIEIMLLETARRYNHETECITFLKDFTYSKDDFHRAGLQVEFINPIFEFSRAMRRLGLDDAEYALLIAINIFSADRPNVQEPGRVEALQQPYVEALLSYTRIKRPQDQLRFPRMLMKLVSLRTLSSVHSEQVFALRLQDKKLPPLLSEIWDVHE

[2] = Luminescence-based cell-based high throughput dose response assay to identify activators of the DAF-12 from the parasite S. stercoralis (ssDAF-12).; assay type: functional
[3] = P. falciparum Dd2 growth inhibitors, dose response, SYBR Green, cherry-picked samples (AID 1159567); assay type: functional, cell-based
[4] = toxicity to human hepatoma HepG2 cells – cell-based, cherry-picked samples, cytotoxicity control, dose response (AID 1159577); assay type: functional
[5] = Luminescence Cell-Based Dose Response HTS to Identify Inhibitors of 5'UTR Stem-Loop Driven Prion Protein mRNA Translation in H4 Neuroglioblastoma Cells. [Related pubchem assays: 1827 (Project Summary), 1813 (Primary HTS)]; assay type: functional
[6] = target: T1, Oxysterols receptor LXR-beta; assay type: functional, cell-based
[7] = blockade of melanocortin 4 receptor signaling – cell-based, plate reader, cherry pick, counter-screen for LGR2 antagonist project, dose response (AID 743444); assay type: functional;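 further: transfected HEK 293 cells stimulated with alpha-MSH peptide; potency of inhibitors of the alpha-MSH evoked signal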
[8] = Luminescence Cell-Based Dose Confirmation HTS to Identify Inhibitors of Platelet Dense Granule Release. [Related pubchem assays: 1663 (Primary HTS), 1678 (Summary of Project)]; assay type: functional
[9] = target: T1, Oxysterols receptor LXR-beta; assay type: functional, cell-based; remark: listed apart in the source
[10] = blockers of bursicon-stimulated LGR2 cAMP reporter – cell-based, HEK293, CRE-luciferase reporter, cherry pick, set 2, dose response (AID 743343); assay type: functional;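 further: transfected cells were stimulated with diluted bursicon conditioned medium after compound addition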
Protein skinhead-1 = target: T2, Protein skinhead-1 (Caenorhabditis elegans, UniProt P34707); assay type: functional
T2 sequence (P34707 whole entry): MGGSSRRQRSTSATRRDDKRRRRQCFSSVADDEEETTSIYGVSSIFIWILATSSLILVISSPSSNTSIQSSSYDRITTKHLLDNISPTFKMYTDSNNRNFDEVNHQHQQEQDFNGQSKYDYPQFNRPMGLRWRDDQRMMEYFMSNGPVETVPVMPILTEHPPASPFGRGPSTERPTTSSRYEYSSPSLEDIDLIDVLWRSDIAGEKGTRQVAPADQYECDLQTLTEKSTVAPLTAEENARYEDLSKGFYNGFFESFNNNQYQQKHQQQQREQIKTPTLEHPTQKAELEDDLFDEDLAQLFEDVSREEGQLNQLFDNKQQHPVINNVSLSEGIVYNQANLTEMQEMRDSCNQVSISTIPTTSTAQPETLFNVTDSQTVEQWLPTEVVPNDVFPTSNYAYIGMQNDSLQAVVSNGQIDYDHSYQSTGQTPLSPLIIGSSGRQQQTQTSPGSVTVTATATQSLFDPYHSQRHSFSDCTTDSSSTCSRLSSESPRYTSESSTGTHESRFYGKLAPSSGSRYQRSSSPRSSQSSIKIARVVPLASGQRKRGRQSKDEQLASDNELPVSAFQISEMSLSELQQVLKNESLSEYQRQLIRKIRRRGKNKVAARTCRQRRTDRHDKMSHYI

[11] = target: Luciferin 4-monooxygenase (Photinus pyralis, UniProt P08659); experiment: inhibition of purified Photinus pyralis luciferase – biochemical, luminescence, dose response (AID 1891)
[12] = toxicity toward HepG2 liver cells – cell-based, plate reader, cherry-pick, antagonist series, cytotoxicity control, dose response (AID 743416); assay type: functional
cells [13] = experiment: cells
[14] = target: DNA repair protein RAD52 homolog (Homo sapiens, UniProt P43351); assay type: functional, biochemical
[15] = target: T3, DNA repair and recombination protein RAD54-like (Homo sapiens, UniProt Q92698); experiment: RAD54 Holliday junction migration blockers – biochemical, fluorescence, cherry-picked samples, dose series, confirmation (AID 651657); assay type: functional
T3 sequence (Q92698 whole entry): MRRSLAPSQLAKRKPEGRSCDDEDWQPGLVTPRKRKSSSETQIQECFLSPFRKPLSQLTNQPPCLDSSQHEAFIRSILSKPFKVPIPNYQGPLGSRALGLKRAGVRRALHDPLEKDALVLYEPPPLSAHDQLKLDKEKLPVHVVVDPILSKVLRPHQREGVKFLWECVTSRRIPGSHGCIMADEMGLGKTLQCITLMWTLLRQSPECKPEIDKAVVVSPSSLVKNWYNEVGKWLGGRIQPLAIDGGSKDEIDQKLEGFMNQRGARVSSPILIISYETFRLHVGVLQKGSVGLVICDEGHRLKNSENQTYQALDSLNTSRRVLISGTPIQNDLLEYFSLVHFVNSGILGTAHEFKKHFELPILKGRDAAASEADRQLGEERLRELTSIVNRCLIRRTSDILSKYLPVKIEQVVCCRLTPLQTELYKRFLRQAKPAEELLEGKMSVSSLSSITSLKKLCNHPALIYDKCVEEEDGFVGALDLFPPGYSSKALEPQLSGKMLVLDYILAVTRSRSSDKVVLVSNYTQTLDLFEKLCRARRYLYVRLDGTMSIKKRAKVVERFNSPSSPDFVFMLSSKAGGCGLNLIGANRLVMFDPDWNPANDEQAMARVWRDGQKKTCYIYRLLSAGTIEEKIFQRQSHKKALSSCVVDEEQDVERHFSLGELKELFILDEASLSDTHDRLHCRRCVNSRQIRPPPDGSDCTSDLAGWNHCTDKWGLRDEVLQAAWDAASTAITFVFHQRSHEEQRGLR

[16] = target: 1-phosphatidylinositol 4,5-bisphosphate phosphodiesterase beta-3 (Homo sapiens, UniProt Q01970); experiment: Fluorescence-based biochemical high throughput dose response assay to identify inhibitors of phospholipase C isozymes (PLC-B3).
[17] = target: 1-phosphatidylinositol 4,5-bisphosphate phosphodiesterase gamma-1 (Homo sapiens, UniProt P19174); experiment: Counterscreen for inhibitors of phospholipase C isozymes (PLC-B3): Fluorescence-based biochemical high throughput dose response assay to identify inhibitors of phospholipase C isozymes (PLC-gamma1).
[18] = target: Bifunctional protein GlmU (Mycobacterium tuberculosis, UniProt P9WMN3); experiment: Inhibitors of Mycobacterial Glucosamine-1-phosphate acetyl transferase (GlmU). Secondary screen.; set-up: species or system Mycobacterium tuberculosis H37Rv
Major prion protein = Major prion protein (Homo sapiens, UniProt P04156); assay type: functional, cell-based
cells [19] = experiment: cells; remark: listed apart in the source
[20] = anti-trypanosomal activity in BESM host cells – imaging, CA-I/72 strain, bovine embryo skeletal muscle, dry powder, dose response (AID 651885); assay type: functional, cell-based

COc1cccc(CC(=O)Nc2ccc3c(c2)c(=O)n(C)n3-c2ccc(C(C)(C)C)cc2)c1
EC50 [1]: > 67.6 µM (inactive) | IC50 [2]: > 67.6 µM (inactive)

COc1cc(CN2C[C@@H]3N[C@H](C2)[C@@H]3c2ccc(-c3ccc(C#N)cc3)cc2)cc(OC)c1
AC50 [3]: 3.05 µM (active) | AC50 [4]: 10.5 µM (active)

O=C(N/N=C/c1cccs1)c1[nH]nc2c1CCC2
EC50 [5]: 11 µM (inconclusive) | EC50 [6]: > 67.5 µM (inactive)

Cc1ccc(-c2noc(-c3cccs3)n2)cc1
AC50 [7]: 22.3 µM (active) | EC50 [8]: > 112 µM (not active) | EC50 [9]: > 67.5 µM (inactive) | AC50 [10]: 14.4 µM (active) | IC50 (Protein skinhead-1): 18.8 µM (active) | EC50 [11]: 3.98 µM (active) | AC50 [12]: > 52 µM (inactive) | EC50 (cells [13]): > 67.5 µM (inactive)

CN(C)CCNC(=O)c1cccc(-c2cnc3c(NC=O)cc(-c4ccccc4F)cn23)c1
AC50 [14]: 3.69 µM (active) | AC50 [15]: 21.7 µM (active)

O=S(=O)(CS(=O)(=O)c1ccc(Br)cc1)c1ccc(Br)cc1
IC50 [16]: > 123 µM (inactive) | IC50 [17]: 30.4 µM (inactive)

Cn1c(SCc2ccccc2F)nc2cccnc21
EC50 [6]: > 67.5 µM (inactive)

Cc1ccc(CNC(=O)CCS(=O)(=O)c2ccc(Br)cc2)cc1
IC50 [18]: 59.1 µM (active)

CCc1nc(SCC(=O)OC(C)C)c2ccccc2n1
IC50 (Major prion protein): 2.38 µM (active) | IC50 (cells [19]): > 138 µM (inactive)

CC(C)N1C[C@H](C)[C@@H](CN(C)C(=O)OC(C)(C)C)Oc2c(NC(=O)c3cccnc3)cccc2C1=O
IC50 [20]: > 20 µM (inactive)
